Publication PMC9134315, “Systemic Administration of a Brain Permeable Cdk5 Inhibitor Alters Neurobehavior” (Frontiers in Pharmacology, 2022)

Columns and labels:
[1] = molecular target: T1, Cdk5 (Mus musculus, UniProt P49615); experiment: Ex vivo acute striatal brain slice pharmacology, immunoblot of phospho-Thr75 DARPP-32 and phospho-Ser1116 NR2B; type: cell-based; conditions: acute striatal slices, 1 h treatment, 0-10 µM; read-out: IC50, Cdk5-dependent phosphorylation of DARPP-32 and NR2B
T1 construct: from tissue; host or cells: striatum of wild-type C57BL/6 mice (acute slices, or lysates after I.V. dosing)
Procedure: Brain slice pharmacology was performed as described ([Nishi et al., 2000]). Briefly, the mice were decapitated, and the brains were rapidly dissected and submerged in ice-cold normal Kreb’s solution (124 mM NaCl, 4 mM KCl, 26 mM NaHCO3, 1.25 mM KH2PO4, 1.5 mM MgSO4, 10 mM D-glucose, and 1.5 mM CaCl2). The brains were subsequently sectioned into normal Kreb’s solution at 350 µ thickness. The brain slices were transferred to a 30°C solution of normal Kreb’s containing 10 µM deaminase for a 1-h recovery period. The sections were then incubated in normal Kreb’s solution with and without the indicated compounds across the dose and time ranges indicated. The sections were rapidly snap-frozen in dry ice to terminate treatment regimes.
(§1) Immunoblotting was performed as previously described ([Umfress et al., 2021]). Mouse brains were rapidly dissected in an ice-cold solution of 50 mM NaF/PBS. The regions of interest were further dissected out and rapidly snap-frozen in dry ice. The frozen tissue was homogenized in boiling lysis buffer (1% SDS, 50 mM NaF) and sonicated with several three to four pulses at 40 dB. The samples were subsequently denatured at 90°C for 5 min. Protein concentration was determined by the BCA assay, and homogenates were diluted in 4x sample buffer, separated by SDS-PAGE, and transferred to 0.45-µm nitrocellulose membranes, blocked with 5% milk solution (1 h), and probed with primary antibodies (overnight). The following antibodies were used in the study: phospho-Ser549 synapsin I (Phosphosolutions), total synapsin I (Phosphosolutions), actin (Invitrogen), phospho-Ser1116 (in-house) ([Plattner et al., 2014]), and total NR2B (Phosphosolutions), phospho-Thr75, and total DARPP-32 (Cell Signaling Technology). Visualization was performed using the Licor CLX membrane scanner and Licor secondary antibodies.
In order to assess the functional inhibition of Cdk5 in intact brain tissue by the four compounds summarized in Figure 1, acutely prepared striatal slices were treated in a dose-dependent manner (0, 0.25, 0.5, 1, 5, and 10 µM) with each inhibitor for 1 h, and Cdk5 activity was assessed via immunoblotting the phosphorylation of established Cdk5 sites, phospho-Thr75 DARPP-32 and phospho-Ser1116 NR2B ([Bibb et al., 1999]; [Plattner et al., 2014]).

[2] = molecular target: T1, Cdk5; experiment: In vivo Cdk5 inhibition after I.V. injection, immunoblot of striatal phospho-Ser549 synapsin I; conditions: 50 mg/kg I.V., striatal lysates, various time points, data not shown
Procedure: The wild-type group housed male C57BL/6 mice 10–12 weeks of age were used for all in vivo, ex vivo, and behavioral studies. This age range was selected to be consistent with previous studies of conditional Cdk5 knockout mice ([Plattner et al., 2015]). 25–106 was administered in a 20-fold dose range intravenously (I.V.) at 10, 50, 100, and 200 mg/kg for pharmacokinetic studies. This delivery mode was used as I.V. injections to avoid first-pass drug metabolism observed using other injection methods ([Pond and Tozer, 1984]). […] All animal experiments were performed under approved protocols by the University of Alabama at Birmingham (UAB) Institutional Animal Care and Use Committees and in accordance with the guidelines of the Animal Welfare Act and the Guide for the Care and Use of Laboratory Animals.
as §1
Each of the four compounds tested in brain slices was further screened for their ability to penetrate the blood–brain barrier (BBB) and inhibit Cdk5-dependent activity in vivo. For these studies, cohorts of mice were treated with each compound via I.V. injection (50 mg/kg), and brain striatal lysates from various time points were subjected to quantitative immunoblot analysis for phosho-Ser549 Synapsin I levels. Three compounds, 20–107, 20–132, and 20–143, had no effect on Cdk5 activity compared to that of vehicle alone (data not shown). […] Moreover, this effect persisted even 24 h after dosing.

[3] = ref Vita et al., 2005; cited from earlier work

T1 sequence (P49615 whole entry): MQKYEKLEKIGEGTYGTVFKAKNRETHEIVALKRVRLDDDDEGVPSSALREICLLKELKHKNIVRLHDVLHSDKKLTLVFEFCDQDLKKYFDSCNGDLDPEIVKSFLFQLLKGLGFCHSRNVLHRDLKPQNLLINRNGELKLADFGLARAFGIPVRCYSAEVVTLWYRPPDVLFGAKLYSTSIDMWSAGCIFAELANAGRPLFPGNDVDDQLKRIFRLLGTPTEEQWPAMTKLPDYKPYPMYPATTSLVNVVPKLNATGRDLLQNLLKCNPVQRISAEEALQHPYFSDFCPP
T1 sequence (P61809 2-307 partner limits assumed): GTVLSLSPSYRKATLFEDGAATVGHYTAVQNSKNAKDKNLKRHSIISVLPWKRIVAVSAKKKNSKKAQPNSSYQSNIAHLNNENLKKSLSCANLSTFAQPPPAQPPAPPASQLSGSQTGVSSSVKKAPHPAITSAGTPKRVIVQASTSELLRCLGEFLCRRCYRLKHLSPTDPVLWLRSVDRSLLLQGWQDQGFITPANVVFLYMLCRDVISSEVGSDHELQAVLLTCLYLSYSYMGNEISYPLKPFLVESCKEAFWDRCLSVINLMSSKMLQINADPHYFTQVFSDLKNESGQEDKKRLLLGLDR

| SMILES | IC50 [1] | effect on Cdk5 activity (phospho-Ser549 synapsin I) compared to vehicle [2] | distribution into the brain [3] | half-life and active metabolites [3] |
| --- | --- | --- | --- | --- |
| O=C(Cc1ccc2c(c1)OCCO2)Nc1cc(C2CCC2)[nH]n1 [25–107] | 0.5 to 1 µM | no effect |  |  |
| O=C(C/C=C/c1ccccc1)Nc1cc(C2CCC2)[nH]n1 [25–132] | 0.5 to 1 µM | no effect |  |  |
| COc1ccc(CC(=O)Nc2cc(C3CCC3)[nH]n2)cc1OC [25–143] | 0.5 to 1 µM | no effect |  |  |
| CC[C@H](CO)Nc1nc(NCc2ccccc2)c2ncn(C(C)C)c2n1 [roscovitine] |  |  | could distribute into the brain | rapid half-life with no detectable active metabolites |
